{"source": "patent US11008570B2", "about": "“3′ end caps for RNAi agents for use in RNA interference” (Novartis AG, priority 2013, dated 2021)", "key": {"[1]": {"system": "FVII (Factor VII), mF7-III target gene", "assay": "RNA interference against FVII by 3′-capped siRNAs (FIG. 2)", "parameters": "species or system mouse", "settings": "19-mer blunt-ended mF7-III siRNA, A12S17"}, "[2]": {"assay": "Serum stability of siRNAs with 3′ end caps in mouse serum", "settings": "100% mouse serum, 37° C., up to 24 h; compared to luciferase and dTsdT controls"}, "[3]": {"assay": "Serum stability of siRNAs with 3′ end caps in human serum", "settings": "100% human serum, 37° C., up to 24 h; gel with SYBR gold"}, "[4]": {"system": "human HAMP (Hepcidin) gene", "assay": "Hepcidin mRNA down regulation by HAMP siRNA-PAZ ligand conjugates in HuH-7 cells", "format": "cell-based", "settings": "Hepcidin RNAi agent, format S402+ribitol+MOE clamp"}, "[5]": {"system": "human SSB", "assay": "Human SSB RNAi agent, RNA interference in vitro", "format": "cell-based"}}}
{"compound": "OCCOCCOCCO", "note": "[Triethylene glycol]", "values": [{"measurement": "ability of the RNAi agent to perform RNA interference (FIG. 2)", "setting": "[1]", "result": "allow the RNAi agent to perform RNA interference"}]}
{"compound": "C1C2CC3CC1CC(C2)C3", "note": "[Adamantane]", "values": [{"measurement": "ability of the RNAi agent to perform RNA interference (FIG. 2)", "setting": "[1]", "result": "allow the RNAi agent to perform RNA interference"}]}
{"compound": "c1ccc(-c2ccccc2)cc1", "note": "[Biphenyl]", "values": [{"measurement": "ability of the RNAi agent to perform RNA interference (FIG. 2)", "setting": "[1]", "result": "allow the RNAi agent to perform RNA interference"}, {"measurement": "stability in mouse serum", "setting": "[2]", "result": "increased stability"}, {"measurement": "stability in human serum", "setting": "[3]", "result": "increased stability"}]}
{"compound": "c1ccc(-c2ccccc2)cc1", "note": "[BP (biphenyl), biphenyl]", "values": [{"measurement": "Hepcidin KD at 5 nM in vitro (%)", "setting": "[4]", "result": 68, "unit": "%"}]}
{"compound": "hs_SSB_309_AS_18mer-C3-C6: \"human SSB RNAi agent\"; \"AS: UuAcAUuAAAGUCUGU87-C3pC6\", \"S: cAAcAGAcuuuAAuGu55-C3pC6\" (SEQ ID NO: 90, 91) (chain 1 UUACAUUAAAGUCUGUTG; chain 2 CAACAGACUUUAAUGUAA; C3pC6 3' end caps on both strands, further chemistry not given here)", "values": [{"measurement": "RNA interference in vitro", "setting": "[5]", "result": "effective at mediating RNA interference in vitro"}]}
